Test results from patent US20260008768A1, “UREA DERIVATIVES FOR INHIBITING NLRP3 AND USES THEREOF” (VENTUS THERAPEUTICS U.S., INC., priority 2023, published 2026).
pIC50: −log10 of the molar value.

Molecular target: human NLRP3 (Homo sapiens, UniProt Q96P20)
Test: Scintillation Proximity (SPA) NLRP3 Assay, displacement of 3H-MCC950
Type: binding
Details: Table B, activity class; displacement of 3H-MCC950 from human NLRP3
Method: Improved NLRP3 binding correlates with increased affinity for NLRP3 protein and, by extension, increased ability to interfere with its function.
SPA experiments were conducted in a total volume of 20 μL assay buffer containing 20 mM HEPES pH 7.5, 150 mM NaCl, 5 mM MgCl2, 0.01% (v/v) Tween-20, 0.01% (w/v) bovine serum albumin (BSA) and 100 μM of adenosine diphosphate (ADP). A human NLRP3 protein (350 nM) (see, e.g., Sharif et al., Nature (2019) 570:338-343; Hochheiser et al., Nature (2022) 604:184-189; Adreeva et al., Cell (2021) 184:6299-6312; Wang et al., J Exp. Med. (2021) 219:e20211147) was incubated with various concentration of compounds in 5% dimethyl sulfoxide (DMSO) final for 15 minutes at room temperature in a white half-area 96 well OptiPlate (PerkinElmer #6002290) before adding 125 nM final of 3H-MCC950. After the addition of radiolabeled MCC950, the plate was incubated for 60 minutes at room temperature before adding 0.25 mg/ml of copper-coated polyvinyltoluene SPA beads (PerkinElmer #RPNQ0095). The plate was then transferred to a microplate counter (PerkinElmer 2450 Microbeta) to collect binding data. Binding data was analyzed 6 hrs post-PVT bead addition to allow sufficient time to reach equilibrium. Specific binding was calculated from averaged duplicates by subtracting signal from wells without NLRP3 protein.
SPA NLRP3 IC50 assay results are provided in Table B. “A” activity=<1 uM; “B” activity=1-10 uM; “C” activity=>10-50 uM; “D” activity=>50 uM-100 uM; and “E” activity=>100 uM.

Sequence of human NLRP3 (Q96P20 whole entry): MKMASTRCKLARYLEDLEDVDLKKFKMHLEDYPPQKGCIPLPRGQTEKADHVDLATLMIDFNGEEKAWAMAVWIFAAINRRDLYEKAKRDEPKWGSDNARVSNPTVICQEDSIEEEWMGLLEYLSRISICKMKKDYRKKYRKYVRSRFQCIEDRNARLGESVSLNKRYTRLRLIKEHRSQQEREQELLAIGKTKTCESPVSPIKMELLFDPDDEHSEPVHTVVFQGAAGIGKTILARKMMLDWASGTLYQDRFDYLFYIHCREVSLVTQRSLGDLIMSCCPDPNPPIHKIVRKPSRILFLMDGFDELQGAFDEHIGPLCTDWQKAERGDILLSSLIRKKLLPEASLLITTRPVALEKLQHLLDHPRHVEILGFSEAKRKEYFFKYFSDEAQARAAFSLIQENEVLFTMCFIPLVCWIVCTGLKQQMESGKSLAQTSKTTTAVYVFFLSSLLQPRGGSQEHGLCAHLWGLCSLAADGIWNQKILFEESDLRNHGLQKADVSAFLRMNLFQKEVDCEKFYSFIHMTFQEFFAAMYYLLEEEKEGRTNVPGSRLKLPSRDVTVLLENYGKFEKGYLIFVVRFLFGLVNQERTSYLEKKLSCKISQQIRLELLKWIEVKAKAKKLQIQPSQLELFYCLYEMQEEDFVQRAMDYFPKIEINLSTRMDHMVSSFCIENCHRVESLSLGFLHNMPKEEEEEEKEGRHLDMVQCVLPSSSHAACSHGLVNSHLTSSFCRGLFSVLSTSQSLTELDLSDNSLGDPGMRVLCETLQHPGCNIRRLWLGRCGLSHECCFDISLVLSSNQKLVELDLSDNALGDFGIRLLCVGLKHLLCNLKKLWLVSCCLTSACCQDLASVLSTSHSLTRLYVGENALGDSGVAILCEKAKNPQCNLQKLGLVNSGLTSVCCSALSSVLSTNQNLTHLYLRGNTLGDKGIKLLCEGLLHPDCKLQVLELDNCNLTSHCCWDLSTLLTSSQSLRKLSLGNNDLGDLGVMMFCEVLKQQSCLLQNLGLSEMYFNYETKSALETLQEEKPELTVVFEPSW

| pIC50 | SMILES |
| --- | --- |
| > 6.00 | CCN(C(=O)N[C@H]1C[C@H](C)CCN(c2nnn[nH]2)C1)c1ccc(OC(F)(F)F)cc1 (single isomer, unassigned) [43B*] |
| 4.00 to 4.30 | C[C@H]1CCN(c2nnn[nH]2)C[C@@H](NC(=O)N(C)c2ccc(C(F)(F)F)nn2)C1 (single isomer, unassigned) [33D*] |
| 5.00 to 6.00 | C[C@@H]1CCN(c2nnn[nH]2)C[C@@H](NC(=O)N(C)c2ccc(Cl)cc2F)C1 (single isomer, unassigned) [5B*] |
| < 4.00 | C[C@H]1CCN(c2nnn[nH]2)C[C@H](NC(=O)N(C)c2ccc(OC(F)(F)F)c(F)c2)C1 (single isomer, unassigned) [14C*] |
| 5.00 to 6.00 | C[C@@H]1CCN(c2nnn[nH]2)C[C@H](NC(=O)N(C)c2ccc(Cl)nc2)C1 (single isomer, unassigned) [29A*] |
| 5.00 to 6.00 | C[C@H]1CCN(c2nnn[nH]2)C[C@@H](NC(=O)N(C)c2ccc(OC(F)(F)F)cc2)C1 (single isomer, unassigned) [10D*] |
| 5.00 to 6.00 | C[C@@H]1CCN(c2nnn[nH]2)C[C@@H](NC(=O)N(C)c2ccc(Cl)cc2Cl)C1 (single isomer, unassigned) [7B*] |
| 5.00 to 6.00 | CCN(C(=O)N[C@H]1C[C@@H](C)CCN(c2nnn[nH]2)C1)c1ccc(OC(F)(F)F)cc1 (single isomer, unassigned) [43D*] |
| < 4.00 | C[C@H]1CCN(c2nnn[nH]2)C[C@H](NC(=O)N(C)c2ccc(C(F)(F)F)cc2F)C1 (single isomer, unassigned) [13C*] |
| 4.00 to 4.30 | C[C@H]1CCN(c2nnn[nH]2)C[C@H](NC(=O)N(C)c2ccc(Cl)cc2)C1 (single isomer, unassigned) [4C*] |
| 4.00 to 4.30 | C[C@H]1CCN(c2nnn[nH]2)C[C@H](NC(=O)N(C)c2ccc(OC(F)F)c(OC(F)F)c2)C1 (single isomer, unassigned) [16C*] |
| 4.30 to 5.00 | C[C@H]1CCN(c2nnn[nH]2)C[C@@H](NC(=O)N(C)c2ccc(OC(F)(F)F)c(OC(F)F)c2)C1 (single isomer, unassigned) [25D*] |
| 4.00 to 4.30 | C[C@H]1CCN(c2nnn[nH]2)C[C@H](NC(=O)N(C)c2cnc(C(F)(F)F)cn2)C1 (single isomer, unassigned) [32C*] |
| 5.00 to 6.00 | C[C@H]1CCN(c2nnn[nH]2)C[C@@H](NC(=O)N(C)c2ccc(OC(F)(F)F)cc2F)C1 (single isomer, unassigned) [24D*] |
| 5.00 to 6.00 | C[C@@H]1CCN(c2nnn[nH]2)C[C@@H](NC(=O)N(C)c2ccc(OC(F)(F)F)c(OC(F)F)c2)C1 (single isomer, unassigned) [25B*] |
| 5.00 to 6.00 | C[C@@H]1CCN(c2nnn[nH]2)C[C@@H](NC(=O)N(C)c2ccc(OC(F)(F)F)c(F)c2F)C1 (single isomer, unassigned) [26B*] |
| 4.30 to 5.00 | C[C@H]1CCN(c2nnn[nH]2)C[C@@H](NC(=O)N(C)c2ccc(C(F)F)cc2F)C1 (single isomer, unassigned) [18D*] |
| 4.30 to 5.00 | C[C@H]1CCN(c2nnn[nH]2)C[C@H](NC(=O)N(C)c2ccc(C3CC3)c(F)c2)C1 (single isomer, unassigned) [23C*] |
| 5.00 to 6.00 | C[C@@H]1CCN(c2nnn[nH]2)C[C@@H](NC(=O)N(C)c2ccc(OC(F)F)cc2)C1 (single isomer, unassigned) [11B*] |
| < 4.00 | C[C@H]1CCN(c2nnn[nH]2)C[C@H](NC(=O)N(C)c2ccc(C(F)(F)F)c(F)c2F)C1 (single isomer, unassigned) [21C*] |
| 4.30 to 5.00 | C[C@H]1CCN(c2nnn[nH]2)C[C@@H](NC(=O)N(C)c2cnc(C(F)(F)F)nc2)C1 (single isomer, unassigned) [31D*] |
| 4.30 to 5.00 | C[C@H]1CCN(c2nnn[nH]2)C[C@@H](NC(=O)N(C)c2ccc(Cl)nc2)C1 (single isomer, unassigned) [29D*] |
| 4.00 to 4.30 | C[C@H]1CCN(c2nnn[nH]2)C[C@H](NC(=O)N(C)c2ccc(Cl)nc2)C1 (single isomer, unassigned) [29C*] |
| < 4.00 | C[C@H]1CCN(c2nnn[nH]2)C[C@H](NC(=O)N(C)c2ccc(OC(F)(F)F)c(F)c2F)C1 (single isomer, unassigned) [26C*] |
| 5.00 to 6.00 | C[C@H]1CCN(c2nnn[nH]2)C[C@@H](NC(=O)N(C)c2ccc(C(F)(F)F)c(F)c2F)C1 (single isomer, unassigned) [21D*] |
| 5.00 to 6.00 | C[C@@H]1CCN(c2nnn[nH]2)C[C@@H](NC(=O)N(CC2CC2)c2ccc(OC(F)(F)F)cc2)C1 (single isomer, unassigned) [44B*] |
| 4.00 to 4.30 | C[C@H]1CCN(c2nnn[nH]2)C[C@H](NC(=O)N(C)c2ccc(C(F)(F)F)nn2)C1 (single isomer, unassigned) [33C*] |

More lines, now with the values behind:

| SMILES | pIC50 |
| --- | --- |
| C[C@H]1C[C@H](NC(=O)N(C)c2ccc(OC(F)F)c(F)c2)[C@@H]2CC[C@H]1N2c1nnn[nH]1 (single isomer, unassigned) [52D*] | 4.30 to 5.00 |
| C[C@@H]1C[C@H](NC(=O)N(C)c2ccc(OC(F)(F)F)cc2)[C@H]2CC[C@@H]1N2c1nnn[nH]1 (single isomer, unassigned) [45B*] | 4.30 to 5.00 |
| C[C@H]1C[C@H](NC(=O)N(C)c2ccc(C3CC3)c(F)c2)[C@@H]2CC[C@H]1N2c1nnn[nH]1 (single isomer, unassigned) [54D*] | 4.30 to 5.00 |
| C[C@H]1CCN(c2nnn[nH]2)C[C@H](NC(=O)N(C)c2c(F)cc(C3CC3)cc2F)C1 (single isomer, unassigned) [20C*] | 4.30 to 5.00 |
| C[C@H]1C[C@@H](NC(=O)N(C)c2ccc(OC(F)(F)F)cc2F)[C@@H]2CC[C@H]1N2c1nnn[nH]1 (single isomer, unassigned) [56C*] | 4.00 to 4.30 |
| C[C@H]1C[C@H](NC(=O)N(C)c2ccc(OC(F)(F)F)cc2F)[C@@H]2CC[C@H]1N2c1nnn[nH]1 (single isomer, unassigned) [56D*] | 5.00 to 6.00 |
| C[C@H]1C[C@@H](NC(=O)N(C)c2ccc3ncoc3c2)CN(c2nnn[nH]2)C1 [Compound 35A, 1-(benzo[d]oxazol-6-yl)-1-methyl-3-((3R,5S)-5-methyl-1-(1H-tetrazol-5-yl)piperidin-3-yl)urea] | 4.30 to 5.00 |
| C[C@H]1C[C@@H](NC(=O)N(C)c2c(F)cc(OC(F)F)cc2F)[C@@H]2CC[C@H]1N2c1nnn[nH]1 (single isomer, unassigned) [61C*] | < 4.00 |
| C[C@H]1C[C@@H](NC(=O)N(C)c2ccc(OC(F)F)cc2)[C@@H]2CC[C@H]1N2c1nnn[nH]1 (single isomer, unassigned) [42C*] | < 4.00 |
| C[C@@H]1C[C@H](NC(=O)N(C)c2ccc(C(F)(F)F)cc2F)[C@H]2CC[C@@H]1N2c1nnn[nH]1 (single isomer, unassigned) [48B*] | < 4.00 |
| C[C@H]1C[C@H](NC(=O)N(C)c2ccc(OC(F)(F)F)c(F)c2F)[C@@H]2CC[C@H]1N2c1nnn[nH]1 (single isomer, unassigned) [59D*] | 4.30 to 5.00 |
| C[C@H]1C[C@@H](NC(=O)N(C)c2c(F)cc(C3CC3)cc2F)[C@@H]2CC[C@H]1N2c1nnn[nH]1 (single isomer, unassigned) [60C*] | 4.00 to 4.30 |
| C[C@@H]1C[C@@H](NC(=O)N(C)c2ccc(Cl)c(F)c2)[C@H]2CC[C@@H]1N2c1nnn[nH]1 (single isomer, unassigned) [50A*] | 5.00 to 6.00 |
| C[C@@H]1C[C@H](NC(=O)N(C)c2c(F)cc(OC(F)F)cc2F)[C@H]2CC[C@@H]1N2c1nnn[nH]1 (single isomer, unassigned) [61B*] | < 4.00 |
| C[C@@H]1C[C@H](NC(=O)N(C)c2ccc(C(F)F)cc2F)[C@H]2CC[C@@H]1N2c1nnn[nH]1 (single isomer, unassigned) [55B*] | < 4.00 |
| C[C@H]1C[C@@H](NC(=O)N(C)c2ccc(OC(F)(F)F)c(F)c2F)[C@@H]2CC[C@H]1N2c1nnn[nH]1 (single isomer, unassigned) [59C*] | < 4.00 |
| C[C@H]1C[C@@H](NC(=O)N(C)c2ccc(C3CC3)cc2)[C@@H]2CC[C@H]1N2c1nnn[nH]1 (single isomer, unassigned) [46C*] | 4.30 to 5.00 |
| C[C@H]1C[C@H](NC(=O)N(C)c2ccc(C(F)F)cc2F)[C@@H]2CC[C@H]1N2c1nnn[nH]1 (single isomer, unassigned) [55D*] | 4.30 to 5.00 |
| C[C@H]1C[C@@H](NC(=O)N(C)c2ccc(C(F)(F)F)c(F)c2)[C@@H]2CC[C@H]1N2c1nnn[nH]1 (single isomer, unassigned) [49C*] | 4.00 to 4.30 |
| C[C@H]1C[C@@H](NC(=O)N(C)c2ccc(C(F)F)cc2F)[C@@H]2CC[C@H]1N2c1nnn[nH]1 (single isomer, unassigned) [55C*] | 4.00 to 4.30 |
| C[C@@H]1C[C@H](NC(=O)N(C)c2ccc(OC(F)F)cc2F)[C@H]2CC[C@@H]1N2c1nnn[nH]1 (single isomer, unassigned) [57B*] | < 4.00 |
| C[C@H]1C[C@H](NC(=O)N(C)c2ccc(OC(F)(F)F)cc2)[C@@H]2CC[C@H]1N2c1nnn[nH]1 (single isomer, unassigned) [45D*] | 5.00 to 6.00 |
| C[C@@H]1CCN(c2nnn[nH]2)C[C@@H](NC(=O)N(C)c2c(F)cc(C3CC3)cc2F)C1 (single isomer, unassigned) [20B*] | 5.00 to 6.00 |
| C[C@H]1C[C@H](NC(=O)N(C)c2ccc(OC(F)F)cc2F)[C@@H]2CC[C@H]1N2c1nnn[nH]1 (single isomer, unassigned) [57D*] | 5.00 to 6.00 |
